Assay results from patent US20020094993A1, “Compositions for repelling crawling insects” (priority 2000, published 2002).
Read-outs that look alike come from different tables or passages of the source.

Test system: garden ants (Lasius niger)
Experiment: Repellent effect of active compounds on treated surfaces against ants
Format: in vivo
Set-up: pest or weed control: dose or concentration left out as unconfirmed
Protocol: Determination of a Repellent Effect of Active Compounds on Treated Surfaces against Ants
The tests are carried out in crystallizing dishes (Ø 30 cm, height 10 cm) using garden ants (Lasius niger). The walls of the dishes are treated with talc to prevent the test animals from escaping. The bottom of the dish is filled with a well-moistened layer of peat of a height of about 3-4 cm. At least 5 days before the beginning of the test, the dishes are populated with 300 ants which by the time the test starts will have built passages and hiding places. The dishes prepared in this manner can be used for several weeks as long as the substances examined are insecticide-free. The ants are fed with forest honey and crystalline sugar, and the feed is removed from the dishes during the tests.
Immediately before the start of the test, 2 glass plates (5×10 cm) are placed into the dish. One plate had been treated with active compound, the other remains untreated.
The activity of the ants can be monitored, for example, visually.
What is determined is the number of ants which, within a period of 15 minutes, cross the surface to be evaluated. The activity has to be so high that at least 100 contacts are achieved. If the activity is not high enough, the time for the test has to be extended accordingly. By evaluating the number of contacts on the treated and the untreated tile, a possible repellent action can be determined.
The results of the experiments with different compositions of repellent and additive are shown below. In the compositions, repellent and additive were mixed in a ratio of 100:100% by weight.

[1] = Lasius niger, 24 h, additive alone, after 1 day, read-out: % reduction of contacts after days
[2] = Lasius niger, 24 h, IR 3535/DEET table, after 1 day, read-out: % reduction of contacts after days
[3] = Lasius niger, 48 h, IR 3535/DEET table, after 2 days, read-out: % reduction of contacts after days
[4] = Lasius niger, 72 h, IR 3535/DEET table, after 3 days, read-out: % reduction of contacts after days
[5] = Lasius niger, 96 h, IR 3535/DEET table, after 4 days, read-out: % reduction of contacts after days
[6] = Lasius niger, 168 h, IR 3535/DEET table, after 7 days, read-out: % reduction of contacts after days
[7] = Lasius niger, 192 h, IR 3535/DEET table, after 8 days, read-out: % reduction of contacts after days
[8] = Lasius niger, 240 h, IR 3535/DEET table, after 10 days, read-out: % reduction of contacts after days

Work on COc1ccc(C=O)c(OC)c1 [2,4-Dimethoxybenzaldehyde] yielded a pest or weed control [1] of 0%.
CCCCN(CCC(=O)OCC)C(C)=O [Ex. 1] was tested, and the pest or weed control [2] was 98%, the pest or weed control [3] was 91% and the pest or weed control [4] was 29%. For the same molecule, the pest or weed control [5] was 0%, the pest or weed control [6] was 0% and the pest or weed control [7] was 0%. The pest or weed control [8] was 0%.
OCC(O)CO [Glycerol] was tested, and the pest or weed control [1] was 0%.
Molecule O=C(O)c1ccccc1O [Salicylic acid] has a pest or weed control at 500 mg/m2 (Lasius niger, 24 h, read-out: % reduction of contacts after days) of 3%.
With COc1cc(C=O)ccc1O [Vanillin] the pest or weed control [1] was 63%, the pest or weed control (Lasius niger, 48 h, additive alone, after 2 days, read-out: % reduction of contacts after days) was 46% and the pest or weed control (Lasius niger, 72 h, additive alone, after 3 days, read-out: % reduction of contacts after days) was 65%. The pest or weed control (Lasius niger, 96 h, additive alone, after 4 days, read-out: % reduction of contacts after days) was 83%, the pest or weed control (Lasius niger, 168 h, additive alone, after 7 days, read-out: % reduction of contacts after days) was 51% and the pest or weed control (Lasius niger, 192 h, additive alone, after 8 days, read-out: % reduction of contacts after days) was 35%. The pest or weed control (Lasius niger, 216 h, additive alone, after 9 days, read-out: % reduction of contacts after days) was 0%, the pest or weed control (Lasius niger, 240 h, additive alone, after 10 days, read-out: % reduction of contacts after days) was 0% and the “repellent effect of the additive on the ants” value (additive alone) was “slightly repellent effect”.
Molecule CCN(CC)C(=O)c1cccc(C)c1 [compound 5, N,N-diethyl-m-toluamide] has a pest or weed control [2] of 100%, a pest or weed control [3] of 76% and a pest or weed control [4] of 0%. The pest or weed control [5] was 0%, the pest or weed control [6] was 27% and the pest or weed control [7] was 14%. For the same molecule, the pest or weed control [8] was 0%.
O=Cc1ccc(O)cc1 [p-Hydroxybenzaldehyde] showed a pest or weed control [1] of 23%.
Molecule O=C/C=C/c1ccccc1 [trans-Cinnamaldehyde] has a pest or weed control [1] of 0%.
